Results as given in patent publication US20260256775A1, “METHOD FOR TREATING MENTAL DISEASES” (SHANGHAI RAISING PHARMACEUTICAL CO., LTD., priority 2022, published 2026).

Columns and labels:
[1] = tested on: Chronic Unpredictable Mild Stress (CUMS) Depressive Rats; assay: Forced swimming test (FST) in CUMS model rats; settings: 8th week of CUMS, 6-minute forced swimming, trazodone 10 mg/kg/day ig, x ± SD
[2] = tested on: Chronic Unpredictable Mild Stress (CUMS) Depressive Rats; assay: Sucrose preference test (SPT) in CUMS model rats; settings: trazodone 10 mg/kg/day ig, x ± SD; for SPT After 2 Weeks of Treatment (%): 5th week of CUMS; for SPT After 4 Weeks of Treatment (%): 7th week of CUMS
[3] = tested on: Chronic Unpredictable Mild Stress (CUMS) Depressive Rats; assay: Elevated plus maze (EPM) test in CUMS model rats; settings: 9th week of CUMS, 5-minute EPM, trazodone 10 mg/kg/day ig, x ± SD

O=c1n(CCCN2CCN(c3cccc(Cl)c3)CC2)nc2ccccn12 [Trazodone] was tested, and the “Immobility Time in FST After 5 Weeks of Treatment (s)” value ([1]; n=8) was 82.28 ± 21.64 ^ s, the “Immobility Time in FST After 5 Weeks of Treatment (s)” value ([1]; n=8, listed as trazodone) was “reduced” and the “SPT After 2 Weeks of Treatment (%)” value ([2]; n=8) was 74.00 ± 11.22%. For the same compound, the “SPT After 2 Weeks of Treatment (%)” value ([2]; n=8, listed as trazodone) was “no significant difference”, the “SPT After 4 Weeks of Treatment (%)” value ([2]; n=8) was 84.55 ± 16.77 ^ % and the “SPT After 4 Weeks of Treatment (%)” value ([2]; n=8, listed as trazodone) was “significantly increased”. The “Time Spent Exploring the Open Arms in the 6th Week of Treatment (s)” value ([3]; n=8) was 4.90 ± 2.06 ^ s and the “Time Spent Exploring the Open Arms in the 6th Week of Treatment (s)” value ([3]; n=8, listed as trazodone) was “no significant change”.
